How the values were obtained:
[1] = test system: Isoprenalin stimulierten Ratten; test: Lowering of heart rate in rats stimulated with subcutaneous isoprenaline; type: in vivo; conditions: anaesthetised rats, 1 mg/kg i.v., heart rate stimulated by subcutaneous isoprenaline
Procedure: In einem zweiten Test wird die Herzfrequenz von Ratten durch subkutane Applikation von Isoprenalin stimuliert. Dann werden die erfindungsgemäßen Verbindungen appliziert (1 mg/kg i.v.) und 'der Effekt auf die Erniedrigung der Herzfrequenz gemessen.

normotonen Ratten = test: Blood pressure before and after i.v. application in anaesthetised normotensive rats; type: in vivo; conditions: Rattus norvegicus, iv, 1 mg/kg i.v., read-out: BD: Blutdrucksenkung in % bei normotonen Ratten
Procedure: Die erfindungsgemäßen neuen Verbindungen werden Ratten mit einer Dosis von 1 mg/kg intravenös appliziert und der Blutdruck vor und nach der Applikation bestimmt.

SMILES | HR: Erniedrigung der Herzfrequenz in absoluten Zahlen bei Isoprenalin stimulierten Ratten (subkutane Applikation) [1] | inhibition in vivo at 1 mg/kg (normotonen Ratten) [%]
COC(=O)C1=C(C)NC(C)=C(C(=O)OCCN(C)CCCNCC(O)COc2cccc3ccccc23)C1c1cccc([N+](=O)[O-])c1 (centres unmarked) [Beispiel 32] | ↓ (15 - < 40) | 10 to 20
COC(=O)C1=C(C)NC(C)=C(C(=O)OCCNCC(O)COc2cccc3ccccc23)C1c1cccc(Cl)c1 (centres unmarked) [Beispiel 68] | ↓ (15 - < 40) | 20 to 30
COC(=O)C1=C(C)NC(C)=C(C(=O)OCCOCCNCC(O)COc2cccc3ccccc23)C1c1cccc([N+](=O)[O-])c1 (centres unmarked) [Beispiel 20] | ↓↓ (40 < 65) | 10 to 20
CC1=C(C(=O)OCCOCCNCC(O)COc2cccc3ccccc23)C(c2cccc([N+](=O)[O-])c2)C(C(=O)OC(C)C)=C(C)N1 (centres unmarked) [Beispiel 30] | (↓) (10) | 30 to 40
CC1=C(C(=O)OCCCNCC(O)COc2cccc3[nH]ccc23)C(c2cccc([N+](=O)[O-])c2)C(C(=O)OC(C)C)=C(C)N1 (centres unmarked) [Beispiel 26] | ↓↓↓ (65 < 100) | 10 to 20
COC(=O)C1=C(C)NC(C)=C(C(=O)OCCNCC(O)COc2ccc(CC(N)=O)cc2)C1c1cccc([N+](=O)[O-])c1 (centres unmarked) [Beispiel 25] | ↓ (15 - < 40) | 5 to 10
CC1=C(C(=O)OCCSCCNCC(O)COc2cccc3ccccc23)C(c2cccc([N+](=O)[O-])c2)C(C(=O)OC(C)C)=C(C)N1 (centres unmarked) [Beispiel 31] | ↓↓ (40 < 65) | 20 to 30
COC(=O)C1=C(C)NC(C)=C(C(=O)OCCCCCNCC(O)COc2cccc3ccccc23)C1c1cccc([N+](=O)[O-])c1 (centres unmarked) [Beispiel 16] | ↓ (15 - < 40) | 10 to 20
CC1=C(C(=O)OCCNCC(O)COc2cccc3ccccc23)C(c2cccc([N+](=O)[O-])c2)C(C(=O)OC(C)C)=C(C)N1 (centres unmarked) [Beispiel 1] | ↓↓ (40 < 65) | 20 to 30
COC(=O)C1=C(C)NC(C)=C(C(=O)OCCNCC(O)COc2cccc3ccccc23)C1c1ccccc1[N+](=O)[O-] (centres unmarked) [Beispiel 69] | ↓ (15 - < 40) | 10 to 20

— patent publication EP0179386A2, “1,4-Dihydropyridine hydroxyamines, process for their preparation and their use as pharmaceutical agents” (BAYER AG, priority 1984, dated 1986)
